Assay results published in patent publication US6426370B1, “Use of thiol compounds in viral inactivation” (priority 2000, dated 2002).
Where “and” joins values, the source holds several entries; their conditions need not be identical. Equal entries are not always repeated.

Experiments:
[1] = test system: HBeAg (hepatitis-B virus e antigen); experiment: Enzyme immunoassay (Abbott HBe EIA) of HBeAg in HepG2-2.2.15 supernatant treated with NAC; format: biochemical; settings: 50 mM NAC
[2] = test system: human immunodeficiency virus (HIV); experiment: Syncytia formation of H9 cells infected with HIV virions pre-incubated with NAC; format: cell-based; settings: for Test positives p/4 (syncytia formation): virions pre-incubated with 0.09 M NAC for 2 h, 4 parallel assays
Description: (§1) In order to examine whether NAC influences the HIV infection of cells, HIV-permissive cells ([…]) were incubated together with HIV-positive cell culture supernatant and the syncytia formation taking place upon successful infection of the host cell was observed. The H9 cell line is a CD4+ T-cell line of human origin (Popovic et al., 1984, Science 224:497-500). The HI virions (viral titer of the original solution is 10^7 viruses/ml) were initially pre-incubated together with NAC at room temperature for two hours (final NAC concentration 0.09 M, dissolved in serum-free cell culture medium) and then mixed with cell culture medium in a decadic dilution series (10^−1 to 10^−5). The same was made analogously with the control without NAC addition. Thereafter, the thus pretreated virions (and the untreated control, respectively) were added to the H9 cell culture for two hours to enable the adsorption of the viruses. Then, the suspension was washed with NAC-free medium and 48-well cell culture plates were covered therewith. Pour parallel assays were carried out for each dilution series. The giant cell formation was observed microscopically over an observation period of 26 days and assessed on a scale from 0 (no syncytia detectable) to 3 (great number of syncytia). It can be seen in connection with the untreated control (FIG. 1) that the syncytia formation is delayed when the viral titer decreases. The degree of syncytia formation is thus directly proportional to the number of infectious viruses. While with a viral titer of 10^5 the syncytia formation starts within four days already, it is delayed by about 2 weeks when the original virus solution has been diluted 10,000 times.
The delay of giant cell formation, which is shown in FIG. 1, is due to a reduction of the number of infectious virions—because of a correlation between viral titer and the number of syncytia. It is in no case caused by an influence of the metabolism of the host cell. The reduced capability to form giant cells (FIG. 1) can be quantified as titer exponent n by observing the laws established by Spearmann-Kärber.
With a total number of 4 preparations per dilution series there is [formula]
Thus, nNAC=−2.5 follows for the titer exponent after NAC treatment. Since the dilution stage of the untreated control, where syncytia formation could no longer be observed, was not determined accurately in this experiment, the maximum value for this preparation, i.e., 10^−6 was assumed as a calculation basis. Correspondingly, the titer of the untreated control is 10^−5,5 or less. The titer after the NAC treatment is 10^−2,5.

HBsAg = HBsAg antigenicity of NAC-treated HBV-positive supernatant with or without dialysis; format: biochemical, hepatitis B virus; settings: 15 min incubation with NAC, dialysis against TNE buffer at 4° C. overnight versus not dialyzed
[3] = test system: human immunodeficiency virus (HIV); experiment: p24-Ag test in cell culture medium of HIV-infected H9 cells, virions treated with NAC prior to infection; format: cell-based; settings: for p24-Ag content in the cell culture medium, extinction at 492 nm: day 26 after infection, NAC-treated virions, exclusion limit <0.093
Description: as §1
This reduction of the infectiosity titer could also be confirmed by means of the p24-Ag test. For this purpose, the cell culture medium was renewed four days prior to the end of the experiment and the p24-Ag content of the cell culture medium was quantified upon termination of the experiment (day 26) (TABLE I). The p24-Ag values of the untreated control were always clearly positive.

[4] = test system: HBsAg (hepatitis-B virus surface antigen); experiment: Enzyme immunoassay (Abbott Auszyme) of HBsAg in HepG2-2.2.15 supernatant treated with NAC; format: biochemical; settings: 50 mM NAC
Description: The cell culture supernatant of a HBV-producing cell line (HepG2-2.2.15 cells, Sells et al., 1984, Proc. Natl. Acad. U.S.A. 84:1005-1009) was separated from the cells and then the viral antigens (HBsAg, hepatitis-B virus “surface” antigen) of the viral envelope were identified by means of an enzyme immunoassay (EIA). In a parallel experimental assay, the cell culture supernatant was treated with NAC directly before the EIA was carried out. […] Since as is known the main antigenic domain of HBsAg is stabilized by numerous disulfide bridges, it can be inferred from this experiment that NAC effects a change in the three-dimensional structure on the virus surface, which is caused by a separation of disulfide bridges. These very viral surface structures are essential for the attachment of the virus to its host cell and thus for its infectiosity.

vaccinia viruses = experiment: Plaque assay of vaccinia virus pre-incubated with NAC on CV1 cells; format: cell-based; settings: pre-incubation with 3, 10, 30 mM NAC, assay variation ±9%

SMILES: CC(=O)N[C@@H](CS)C(=O)O [NAC, N-acetyl cysteine]
- recognition of HBeAg by EIA [1]: recognized unrestrictedly
- reduction of the viral titer, measured on the basis of syncytia formation capability ([2]; 0.09 M NAC versus untreated control): at least three decimal exponents
- titer exponent n after NAC treatment (Spearmann-Kärber) ([2]; 0.09 M NAC, 2 h, room temperature, syncytia formation): −2.5
- syncytia formation within the observation period ([2]; NAC-treated virions diluted by more than 100 times (viral titer <10^4), observation period of four weeks): no longer possible to observe syncytia formation
- Test positives p/4 (syncytia formation) ([2]; class limit -1 (virus dilution 10^-1)): 4/4
- Test positives p/4 (syncytia formation) ([2]; class limit -2 (virus dilution 10^-2)): 1/4
- Test positives p/4 (syncytia formation) ([2]; class limit -3 (virus dilution 10^-3)): 1/4
- Test positives p/4 (syncytia formation) ([2]; class limit -4 (virus dilution 10^-4)): 2/4
- Test positives p/4 (syncytia formation) ([2]; class limit -5 (virus dilution 10^-5)): 0/4
- effect of NAC on the viruses (HBsAg antigenicity) after removing NAC by dialysis (HBsAg): irreversible
- p24-Ag content in the cell culture medium versus untreated control ([3]; from an HIV dilution factor of 1/100 on, day 26): marked reduction
- p24-Ag content in the cell culture medium, extinction at 492 nm ([3]; virus dilution 10^-1): >2.0 O.D. 492 nm
- p24-Ag content in the cell culture medium, extinction at 492 nm ([3]; virus dilution 10^-5): 0.069 O.D. 492 nm and 0.04 O.D. 492 nm and 0.044 O.D. 492 nm
- detection of HBsAg by EIA [4]: not possible
- reduction of the viral titer of the vaccinia virus suspension (vaccinia viruses): up to 70%
